Starred links: 1 amine or outer side, 2 acyl side, 3 side chain; linkers in the order of their positions; H or OH if unused. Positions of bridges follow the written chain, without caps; N, C: chain ends. Non-standard residues stand in square brackets, D forms with d. Residues, ends and D or L forms follow the SMILES beside them. *: point of attachment. dAsp(3R-OH) = N[C@@H](C(=O)O)[C@@H](O)C(=O)O; X1 = NC[C@H](O)[C@@H](N[*:1])C(=O)[*:2]; X2 = CCC(C)(O)[C@H](N[*:1])C(=O)[*:2]; d(aIle) = CC[C@H](C)[C@@H](N)C(=O)O; Myristoyl = CCCCCCCCCCCCCC(=O)*; dOrn = NCCC[C@@H](N)C(=O)O; hSer = N[C@@H](CCO)C(=O)O
Experiments:
[1] = mouse, in vivo
[2] = in vivo; conditions: female, BALB/c, mouse
[3] = iv, 5 mg/kg, Mean plasma concentration

**Q.** For `CCCCCCCCCCCCCC(=O)N[C@H](CCCN)C(=O)N[C@@H](CO)C(=O)N[C@H](C(=O)N[C@@H](C(=O)N[C@@H](C(=O)N[C@@H]1C(=O)NCC(=O)N[C@@H](C(C)(O)CC)C(=O)N[C@H]([C@@H](C)CC)C(=O)N[C@@H](CCO)C(=O)N[C@@H](C)C(=O)N[C@H]([C@@H](C)CC)C(=O)N[C@@H](CCC(=O)O)C(=O)O[C@@H]1C)[C@@H](O)CN)[C@@H](O)C(=O)O)C(C)C` (stereo partly drawn) [Compound 1, Turnercyclamycin A] (Myristoyl-[dOrn]SV[dAsp(3R-OH)][X1]TG[X2][d(aIle)][hSer]A[d(aIle)]E; ester 6-C), which “B.W. (g)” value [1] is on record?
**A.** −

**Q.** What about the “Body Temperature” value [1] of the same compound?
**A.** −

**Q.** What about the Convulsion [1] of the same compound?
**A.** −

**Q.** And the “Convulsion C.T.C-T” value [1]?
**A.** −

**Q.** What about the “Dec. Exploration” value [1] of the same compound?
**A.** −

**Q.** And the “Dec. Palpebral” value [1]?
**A.** −

**Q.** What about the “Dec. Palpebral Size” value [1] of the same compound?
**A.** −

**Q.** What about the “Dec. Startle” value [1] of the same compound?
**A.** −

**Q.** What about the “Dec. Startle Response” value [1] of the same compound?
**A.** −

**Q.** And the “Dec. Touch” value [1]?
**A.** −

**Q.** And the “Dec. Touch Response” value [1]?
**A.** −

**Q.** And the Diarrhea [1]?
**A.** −

**Q.** And the “Grip Strength” value [1]?
**A.** −

**Q.** And the Hyperactivity [1]?
**A.** −

**Q.** What about the “Inc. Exploration” value [1] of the same compound?
**A.** −

**Q.** What about the “Inc. Palpebral Size” value [1] of the same compound?
**A.** −

**Q.** And the “Inc. Startle” value [1]?
**A.** −

**Q.** And the Lacrimation [1]?
**A.** −

**Q.** What about the “Limb Tone” value [1] of the same compound?
**A.** +

**Q.** And the Piloerection [1]?
**A.** ±

**Q.** What about the Pinna [1] of the same compound?
**A.** −

**Q.** And the Placing [1]?
**A.** −

**Q.** And the Righting [1]?
**A.** −

**Q.** And the “Salivation F.V.” value [1]?
**A.** −

**Q.** What about the “Skin Color” value [1] of the same compound?
**A.** −

**Q.** What about the “Straub Tail” value [1] of the same compound?
**A.** −

**Q.** And the “adverse effects noted after the two administrations” value [1]?
**A.** decrease in adnominal tone, limb tone, and spontaneous activity, and tremor, piloerection, and increase in the respiration rate (fast)

**Q.** And the “dose up to which well tolerated in mice” value [1]?
**A.** up to 50 mg/kg

**Q.** And the “more pronounced adverse effects elicited” value [1]?
**A.** vocalization, ataxia, reactivity, and hunch back

**Q.** And the clearance [2]?
**A.** 0.29 mL/min/kg

**Q.** What about the AUC(0-inf) ([2]; iv, 5 mg/kg) of the same compound?
**A.** 290 µg·h/mL

**Q.** And the AUC(0-t) ([2]; iv, 5 mg/kg)?
**A.** 285 µg·h/mL

**Q.** What about the C0 ([2]; iv, 5 mg/kg) of the same compound?
**A.** 33700 ng/mL

**Q.** What about the MRT ([2]; iv, 5 mg/kg) of the same compound?
**A.** 5.83 h

**Q.** And the Vd ([2]; iv, 5 mg/kg)?
**A.** 0.1 L/kg

**Q.** What about the clearance ([2]; iv, 5 mg/kg) of the same compound?
**A.** 0.29 mL/min/kg

**Q.** And the half-life ([2]; iv, 5 mg/kg)?
**A.** 4.35 h

**Q.** What about the level at 0.05 h [2, 3] of the same compound?
**A.** 53300 ng/mL

**Q.** And the level at 0.167 h [2, 3]?
**A.** 38600 ng/mL

**Q.** What about the level at 0.5 h [2, 3] of the same compound?
**A.** 33700 ng/mL

**Q.** And the level at 1 h [2, 3]?
**A.** 29300 ng/mL

**Q.** And the level at 2 h [2, 3]?
**A.** 26200 ng/mL

**Q.** What about the level at 4 h [2, 3] of the same compound?
**A.** 22500 ng/mL

**Q.** And the level at 8 h [2, 3]?
**A.** 12000 ng/mL

**Q.** And the level at 24 h [2, 3]?
**A.** 931 ng/mL

**Q.** And the level at 0.5 h ([2]; iv, 5 mg/kg, Sample concentration in plasma (individual mouse))?
**A.** 34400 ng/mL

From patent publication US12215129B2, “Antibacterial cyclopeptides targeting acinetobacter and other gram-negative pathogens” (priority 2020, dated 2025)
